Source: a flash point compilation (Sun et al. 2020)

Structure (SMILES) | flash point
N#CC(Cl)(Cl)Cl [2,2,2-trichloroacetonitrile] | 74.00 °C
O=CC(Cl)Cl [2,2-dichloroacetaldehyde] | 60.00 °C
O=C(Cl)C(Cl)Cl [2,2-dichloroacetyl chloride] | 66.00 °C
OCC(Cl)Cl [2,2-dichloroethanol] | 78.00 °C
CCCCCCCC(=O)OCC(COC(=O)CCCCCCC)OC(=O)CCCCCCC [2,3-di(octanoyloxy)propyl octanoate] | 177.00 °C
CC(=O)OCC(COC(C)=O)OC(C)=O [2,3-diacetyloxypropyl acetate] | 138.00 °C
O=CC(Cl)=C(Cl)C(=O)O [2,3-dichloro-4-oxobut-2-enoic acid] | 100.00 °C
C=C(Cl)CCl [2,3-dichloroprop-1-ene] | 10.00 °C
OCC(Cl)CCl (configuration not stated) [2,3-dichloropropan-1-ol] | 91.00 °C
CC(C)C(C)C [2,3-dimethylbutane] | -29.00 °C
C=C(C)CC(C)(C)C [2,4,4-trimethylpent-1-ene] | 2.00 °C
Oc1ccc(Br)cc1Br [2,4-dibromophenol] | 113.00 °C
O=Cc1ccc(Cl)cc1Cl [2,4-dichlorobenzaldehyde] | 135.00 °C
Cc1ccc(N)c(C)c1 [2,4-dimethylaniline] | 96.00 °C
Nc1cc(Cl)ccc1Cl [2,5-dichloroaniline] | 113.00 °C
Cc1cccc(C)c1N.Cl [2,6-dimethylaniline;hydrochloride] | 91.00 °C
CC(C)CC(=O)CC(C)C [2,6-dimethylheptan-4-one] | 60.00 °C
CC(Oc1ccc(Cl)cc1Cl)C(=O)O (configuration not stated) [2-(2,4-dichlorophenoxy)propanoic acid] | 204.00 °C
CCCCOCCOCCSC#N [2-(2-butoxyethoxy)ethyl thiocyanate] | 52.00 °C
CCCCCCOCCOCCO [2-(2-hexoxyethoxy)ethanol] | 141.00 °C

Structure (SMILES) | flash point
OCCOCCO [2-(2-hydroxyethoxy)ethanol] | 143.00 °C
OCCNCCO [2-(2-hydroxyethylamino)ethanol] | 137.00 °C
OCCN1CC1 [2-(aziridin-1-yl)ethanol] | 67.00 °C
CCCCN(CCO)CCCC [2-(dibutylamino)ethanol] | 99.00 °C
CCN(CC)CCO [2-(diethylamino)ethanol] | 60.00 °C
CN(C)CCO [2-(dimethylamino)ethanol] | 41.00 °C
CCNCCO [2-(ethylamino)ethanol] | 71.00 °C
CCOCCOCCOCCO [2-[2-(2-ethoxyethoxy)ethoxy]ethanol] | 135.00 °C
OCCOCCOCCO [2-[2-(2-hydroxyethoxy)ethoxy]ethanol] | 166.00 °C
CC(O)COC(C)COC(C)CO (configuration not stated) [2-[2-(2-hydroxypropoxy)propoxy]propan-1-ol] | 141.00 °C
CCCCOCCOCCOCCOCCO [2-[2-[2-(2-butoxyethoxy)ethoxy]ethoxy]ethanol] | 166.00 °C
CN(CCO)CCO [2-[2-hydroxyethyl(methyl)amino]ethanol] | 127.00 °C
CC(C)(C)OCC1CO1 (configuration not stated) [2-[(2-methylpropan-2-yl)oxymethyl]oxirane] | 43.00 °C
c1cc(OCC2CO2)cc(OCC2CO2)c1 (configuration not stated) [2-[[3-(oxiran-2-ylmethoxy)phenoxy]methyl]oxirane] | 177.00 °C
Nc1ccccc1C(=O)O [2-aminobenzoic acid] | 171.00 °C
NCCO [2-aminoethanol] | 93.00 °C
Oc1ccc(Cl)cc1Cc1ccccc1 [2-benzyl-4-chlorophenol] | 188.00 °C
O=C(O)C(Cl)Br (configuration not stated) [2-bromo-2-chloroacetic acid] | 110.00 °C
O=[N+]([O-])C(Br)(CO)CO [2-bromo-2-nitropropane-1,3-diol] | 167.00 °C
O=C(O)CBr [2-bromoacetic acid] | 113.00 °C

Structure (SMILES) | flash point
CCC(C)Br (configuration not stated) [2-bromobutane] | 21.00 °C
CCCC(C)Br (configuration not stated) [2-bromopentane] | 21.00 °C
CCCCOCCOC(C)=O [2-butoxyethyl acetate] | 71.00 °C
O=C(CCl)c1ccccc1 [2-chloro-1-phenylethanone] | 118.00 °C
CC(C)(Cl)[N+](=O)[O-] [2-chloro-2-nitropropane] | 57.00 °C
C=CCN(CC=C)C(=O)CCl [2-chloro-N,N-bis(prop-2-enyl)acetamide] | 186.00 °C
O=C(O)CCl [2-chloroacetic acid] | 150.00 °C
Nc1ccccc1Cl [2-chloroaniline] | 98.00 °C
C=C(Cl)C#N [2-chloroprop-2-enenitrile] | 7.00 °C
CC(C)Cl [2-chloropropane] | -32.00 °C
CC(Cl)C(=O)O (configuration not stated) [2-chloropropanoic acid] | 107.00 °C
C=CC(=O)OCCC#N [2-cyanoethyl prop-2-enoate] | 124.00 °C
O=C1c2ccccc2C(=O)N1SC1CCCCC1 [2-cyclohexylsulfanylisoindole-1,3-dione] | 177.00 °C
CNC(=O)CSP(=S)(OC)OC [2-dimethoxyphosphinothioylsulfanyl-N-methylacetamide] | 51.00 °C
CCC(CO)(CO)CO [2-ethyl-2-(hydroxymethyl)propane-1,3-diol] | 172.00 °C
CCc1ccccc1N [2-ethylaniline] | 85.00 °C
CCCC=C(C=O)CC [2-ethylhex-2-enal] | 68.00 °C
C=C(C)C(=O)OCC(CC)CCCC (configuration not stated) [2-ethylhexyl 2-methylprop-2-enoate] | 92.00 °C

The next lines start with the values.

flash point | Structure (SMILES)
21.00 °C | CCCOCCC [1-propoxypropane]
58.00 °C | Cc1ccc(C(C)(C)C)cc1 [1-tert-butyl-4-methylbenzene]
145.00 °C | c1c[nH]cn1 [1H-imidazole]
39.00 °C | c1cc[nH]c1 [1H-pyrrole]
113.00 °C | CC(C)C(O)C(C)(C)CO (configuration not stated) [2,2,4-trimethylpentane-1,3-diol]
33.00 °C | C=C1C2CCC(C2)C1(C)C (configuration not stated) [2,2-dimethyl-3-methylidenebicyclo[2.2.1]heptane]
100.00 °C | Oc1c(Cl)cc(Cl)c(Cl)c1Cl [2,3,4,6-tetrachlorophenol]
59.00 °C | C=C(C)C(=O)OCC(Br)CBr (configuration not stated) [2,3-dibromopropyl 2-methylprop-2-enoate]
-18.00 °C | CC1OC1C (configuration not stated) [2,3-dimethyloxirane]
61.00 °C | CCC(C)C(C)CO (configuration not stated) [2,3-dimethylpentan-1-ol]
58.00 °C | Cc1cc(C)nc(C)c1 [2,4,6-trimethylpyridine]
124.00 °C | CN(C)Cc1cc(CN(C)C)c(O)c(CN(C)C)c1 [2,4,6-tris[(dimethylamino)methyl]phenol]
127.00 °C | CCCCCCCCCc1ccc(O)c(CCCCCCCCC)c1 [2,4-di(nonyl)phenol]
-1.00 °C | Cc1ccc(C)o1 [2,5-dimethylfuran]
40.00 °C | CC1CCC2CC1C2(C)C (configuration not stated) [2,6,6-trimethylbicyclo[3.1.1]heptane]
135.00 °C | O=Cc1c(Cl)cccc1Cl [2,6-dichlorobenzaldehyde]
110.00 °C | CCOCCOCCOC(C)=O [2-(2-ethoxyethoxy)ethyl acetate]
193.00 °C | Oc1cc(O)c2cc(O)c(-c3cc(O)c(O)c(O)c3)[o+]c2c1.[Cl-] [2-(3,4,5-trihydroxyphenyl)chromenylium-3,5,7-triol;chloride]
23.00 °C | CC(C)=CCC1CCCC1=O (configuration not stated) [2-(3-methylbut-2-enyl)cyclopentan-1-one]
91.00 °C | C=CC(=O)OCCN(CC)CC [2-(diethylamino)ethyl prop-2-enoate]

flash point | Structure (SMILES)
74.00 °C | C=C(C)C(=O)OCCN(C)C [2-(dimethylamino)ethyl 2-methylprop-2-enoate]
64.00 °C | C(OCC1CO1)C1CO1 (configuration not stated) [2-(oxiran-2-ylmethoxymethyl)oxirane]
33.00 °C | CC(C)OCC1CO1 (configuration not stated) [2-(propan-2-yloxymethyl)oxirane]
96.00 °C | C=C(C)C(=O)OCCNC(C)(C)C [2-(tert-butylamino)ethyl 2-methylprop-2-enoate]
67.00 °C | ClC(Cl)(Cl)C1CO1 (configuration not stated) [2-(trichloromethyl)oxirane]
235.00 °C | CCCCCCCCCCOC(=O)c1ccccc1C(=O)OCCCCCCCC [2-O-decyl 1-O-octyl benzene-1,2-dicarboxylate]
79.00 °C | CN(C)CCOCCN(C)C [2-[2-(dimethylamino)ethoxy]-N,N-dimethylethanamine]
161.00 °C | COCCOCCOCCOCCO [2-[2-[2-(2-methoxyethoxy)ethoxy]ethoxy]ethanol]
93.00 °C | Cc1ccccc1OCC1CO1 (configuration not stated) [2-[(2-methylphenoxy)methyl]oxirane]
250.00 °C | CC(=O)Oc1ccccc1C(=O)O [2-acetyloxybenzoic acid]
86.00 °C | CC(=O)OCC(C)OC(C)=O (configuration not stated) [2-acetyloxypropyl acetate]
168.00 °C | Nc1ccccc1O [2-aminophenol]
-16.00 °C | CC(C)(C)Br [2-bromo-2-methylpropane]
163.00 °C | CCCCCCCCCCCCc1ccccc1O [2-dodecylphenol]
-46.00 °C | C=CC1CO1 (configuration not stated) [2-ethenyloxirane]
-19.00 °C | CCOC(C)(C)C [2-ethoxy-2-methylpropane]
98.00 °C | CCOCC(=O)O [2-ethoxyacetic acid]
52.00 °C | C=CC(=O)OCC(CC)CC [2-ethylbutyl prop-2-enoate]
88.00 °C | CCCCC(CC)COC(C)=O (configuration not stated) [2-ethylhexyl acetate]
